Reference: ChEMBL document CHEMBL1201862, “PubChem BioAssay data set” (2004)
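Interpolation was linear, between the two tested concentrations surrounding the appropriate level; five concentrations were tested over 48 hours in 96-well plates. Here, GI50 denotes the concentration required for 50% inhibition of growth.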 Activity calls are given as the source filed them. Rule as the data show it: active = GI50 up to about 1.1 µM and inactive = higher.

Tests used:
Experiment in all cases: inhibition of tumour cell growth, NCI panel, 48 h
[1] = test system: HCT-116
[2] = test system: HOP-62
[3] = test system: SK-MEL-28
[4] = test system: SF-268
[5] = test system: DU-145
[6] = test system: NCI-H226
[7] = test system: RPMI-8226
[8] = test system: CAKI-1
[9] = test system: BT-549
[10] = test system: MCF7
[11] = test system: HOP-92
[12] = test system: M14
[13] = test system: NCI-H460
[14] = test system: SW-620
[15] = test system: COLO 205
[16] = test system: HL-60
[17] = test system: K562
[18] = test system: HT-29
[19] = test system: Hs-578T
[20] = test system: SK-MEL-5

Measured: GI50

N#Cc1c(-c2ccc([N+](=O)[O-])cc2)cc(-c2ccc(Nc3ccnc4cc(Cl)ccc34)cc2)[nH]c1=O
inactive: [1] > 100 µM | [2] 67.3 µM | [3] > 100 µM | [4] > 100 µM | [5] > 100 µM | [6] > 100 µM | [7] > 100 µM | [8] > 100 µM | [9] > 100 µM | [10] > 100 µM | [11] > 100 µM | [12] > 100 µM | [13] > 100 µM | [14] > 100 µM | [15] > 100 µM | [16] > 100 µM | [17] > 100 µM

COC(=O)N1CC2(CO)C3CC=C(C(=O)Nc4ccccc4Br)C2C1C3Br (centres undefined)
inactive: [2] > 50 µM | [3] > 50 µM | [18] > 50 µM | [19] > 50 µM | [4] > 50 µM | [5] > 50 µM | [6] > 50 µM | [20] > 50 µM | [7] > 50 µM | [8] > 50 µM | [10] > 50 µM | [11] > 50 µM | [12] > 50 µM | [13] > 50 µM | [14] > 50 µM | [15] > 50 µM | [16] > 50 µM | [17] > 50 µM

O=C(N/N=C/c1ccccc1)c1c(-c2cccnc2)cnc2ccccc12
inactive: [1] 52.5 µM | [2] 87.7 µM | [3] > 100 µM | [18] 42.1 µM | [4] > 100 µM | [5] > 100 µM | [6] > 100 µM | [20] 43.7 µM | [7] > 100 µM | [8] > 100 µM | [9] 79.4 µM | [10] 48.2 µM | [11] > 100 µM | [12] > 100 µM | [13] 61.1 µM | [14] 59.6 µM | [15] > 100 µM | [16] 42.9 µM | [17] 44.9 µM

Cc1ccc2c(n1)NC(=O)C(Cc1ccccc1)(N=[N+]=[N-])C2=O (centres undefined)
inactive: [1] > 100 µM | [2] > 100 µM | [3] > 100 µM | [18] > 100 µM | [4] > 100 µM | [5] > 100 µM | [6] > 100 µM | [8] > 100 µM | [9] > 100 µM | [10] > 100 µM | [11] > 100 µM | [12] > 100 µM | [13] > 100 µM | [14] > 100 µM | [15] > 100 µM | [17] > 100 µM

COC(=O)C(=O)C(C(=O)C(=O)Nc1ccccc1C(C)=O)c1nc2ccc(C(=O)c3ccccc3)cc2nc1O (centres undefined)
inactive: [1] > 100 µM | [2] 45.2 µM | [18] 77.8 µM | [19] 47.2 µM | [4] 68.2 µM | [6] 98.2 µM | [20] 62.8 µM | [7] 63.1 µM | [8] 25.9 µM | [9] > 100 µM | [10] 19.4 µM | [11] 75 µM | [12] > 100 µM | [13] 58.9 µM | [16] > 100 µM | [17] 39.4 µM

O=C1NCC2(CCN(CC3COc4ccccc4O3)CC2)N1c1ccccc1 (centres undefined)
inactive: [1] > 100 µM | [2] > 100 µM | [3] 89.5 µM | [18] > 100 µM | [19] > 100 µM | [4] > 100 µM | [5] > 100 µM | [6] > 100 µM | [20] > 100 µM | [7] > 100 µM | [8] > 100 µM | [10] > 100 µM | [12] > 100 µM | [13] > 100 µM | [14] > 100 µM | [15] > 100 µM | [16] 60.3 µM | [17] 80.4 µM

Cc1ccc(-n2nnc3c(NNc4ccccc4)n[nH]c(=O)c32)cc1
inactive: [1] 82.8 µM | [2] 66.2 µM | [3] > 100 µM | [18] 57.9 µM | [4] > 10 µM | [5] > 100 µM | [6] 70 µM | [20] 43.1 µM | [7] > 100 µM | [8] > 100 µM | [9] 73.3 µM | [10] 35.3 µM | [11] 23.1 µM | [12] > 100 µM | [13] 30.8 µM | [15] 75 µM | [16] 84.7 µM | [17] 48.3 µM

O=c1[nH]nc(Cc2ccc(Cl)cc2)n1/N=C/c1ccco1
inactive: [1] 93.1 µM | [2] 48.6 µM | [3] > 100 µM | [18] 33.1 µM | [4] 38.3 µM | [5] > 100 µM | [6] 84.5 µM | [7] > 100 µM | [8] > 100 µM | [9] 40.6 µM | [10] 3.15 µM | [11] 93.8 µM | [12] > 100 µM | [13] > 100 µM | [14] > 100 µM | [15] > 100 µM | [16] > 100 µM | [17] > 100 µM

c1ccc2c(c1)CCN2CCN1CCc2ccccc21
inactive: [1] > 10 µM | [2] > 10 µM | [3] > 10 µM | [18] > 10 µM | [19] > 10 µM | [4] > 10 µM | [5] > 10 µM | [6] > 10 µM | [20] > 10 µM | [7] > 10 µM | [8] > 10 µM | [10] > 10 µM | [11] > 10 µM | [12] > 10 µM | [13] > 10 µM | [14] > 10 µM | [15] > 10 µM | [16] > 10 µM | [17] > 10 µM

NC(=O)c1cc2ccccc2c(/N=N/c2ccccc2)c1O
inactive: [1] 14.1 µM | [2] 22.6 µM | [3] > 100 µM | [18] 7.87 µM | [19] 93.3 µM | [4] 52.7 µM | [5] > 100 µM | [6] > 100 µM | [20] > 100 µM | [7] 59.6 µM | [8] 23.5 µM | [9] > 100 µM | [11] 12.5 µM | [12] > 100 µM | [14] > 100 µM | [15] > 100 µM | [17] 71.9 µM

O=C1O/C(=C\c2ccc(O)cc2)C(c2ccc(O)c(Cl)c2)=C1Cl
inactive: [2] 35.4 µM | [3] > 100 µM | [18] 53.2 µM | [19] > 100 µM | [4] 29.2 µM | [5] > 100 µM | [6] 58.1 µM | [20] 18.5 µM | [7] > 100 µM | [8] 37.2 µM | [10] 16.6 µM | [11] 26.5 µM | [12] 35.7 µM | [13] 30.3 µM | [14] 41.7 µM | [15] 96.6 µM | [16] 33 µM | [17] 57.1 µM
